Data taken from paper PMC5458211, “Mitochondrial VDAC1-based peptides: Attacking oncogenic properties in glioblastoma” (Oncotarget, 2017).
Non-standard residues stand in square brackets, D forms with d. Residues, ends and D or L forms follow the SMILES beside them.

Tested on: U-251MG cells
Assay: Cell death by PI staining and flow cytometry, U-251MG
Format: cell-based, human
Conditions: 6 h at 37°C, serum-free medium, means ± SD (n=3), Fig 1H, read-out: IC50 for inducing cell death
Text: Figure 1 VDAC1-based peptides induce dramatic cell death of several brain tumor-derived cell lines but to lesser extent in primary brain cells A. IHC staining of VDAC1 of human normal brain (n=13) or glioblastoma (n=41) in tissue array slides (Biomax), as described in Materials and methods available online in Supplemental information. Percentages of sections stained at the intensity indicated are shown. […] The VDAC1-derived sequences Δ(1-14)N-terminus and LP4 are in green and pink, respectively. The cell-penetrating peptides Antp and Tf are in orange and blue, respectively. The loop shape of LP4 stabilized by a tryptophan zipper is in purple. The amino acids of Δ(1-14)N-terminus, LP4 and Antp are in the D configuration. The sequences of D-LP4 and Retro-D-LP4 are presented below. C. […] Cells were harvested, washed twice with PBS and cell death was analyzed by propidium iodide (PI) staining and flow cytometry. […] Cells were harvested, washed twice with PBS and cell death was analyzed by PI staining and flow cytometry. […]
Cells (6×10^5 /ml) were incubated in 500 μl serum-free medium with the peptide of interest for 6 h at 37°C in the presence of 5% CO2. The cells were then trypsinized, centrifuged (1500xg, 5 min), washed with PBS and analyzed for cell death using propidium iodide (PI) staining and flow cytometer (Beckton-Dickinson, San Jose, CA) and BD CellQuest Pro software. […]

CC[C@@H](C)[C@@H](NC(=O)[C@@H](CCCCN)NC(=O)[C@H](NC(=O)[C@@H](CCC(N)=O)NC(=O)[C@@H](CCCNC(=N)N)NC(=O)[C@@H](CC(C)C)NC(=O)CNC(=O)[C@@H](Cc1ccccc1)NC(=O)CNC(=O)[C@@H](Cc1ccc(O)cc1)NC(=O)CNC(=O)[C@@H](CCCCN)NC(=O)[C@H](NC(=O)[C@@H](Cc1ccccc1)NC(=O)[C@H](NC(=O)[C@@H](CC(=O)O)NC(=O)[C@H](N)CCCNC(=N)N)C(C)C)[C@H](C)O)[C@H](C)CC)C(=O)N[C@H](Cc1c[nH]c2ccccc12)C(=O)N[C@H](Cc1ccccc1)C(=O)N[C@H](CCC(N)=O)C(=O)N[C@H](CC(N)=O)C(=O)N[C@H](CCCNC(=N)N)C(=O)N[C@H](CCCNC(=N)N)C(=O)N[C@H](CCSC)C(=O)N[C@H](CCCCN)C(=O)N[C@H](Cc1c[nH]c2ccccc12)C(=O)N[C@H](CCCCN)C(=O)N[C@H](CCCCN)C(=O)O [D-ΔN-Ter-Antp] (H-[dR][dD][dV][dF][dT][dK]G[dY]G[dF]G[dL][dR][dQ][dI][dK][dI][dW][dF][dQ][dN][dR][dR][dM][dK][dW][dK][dK]-OH; N-terminus and C-terminus assumed)
IC50: 4.7 ± 0.9 µM
